Data from patent US20230405071A1, “COMPOSITIONS AND METHODS USEFUL FOR MANAGEMENT OF BLOOD SUGAR” (SOLVEAT FUNCTIONAL NUTRITION SOLUTIONS LTD., priority 2020, published 2023).

How the values were obtained:
L6 myotubes = assay: Glucose uptake colorimetric assay (2-deoxy glucose) in differentiated L6 cells; format: cell-based; conditions: insulin challenge versus serum-free control (FIG. 2)
Protocol: The objective of the study was to evaluate the anti-diabetic action of herbal blends. The ability to enhance glucose consumption by skeletal muscle was evaluated in L6 myotubes model in comparison to various control groups, including two known traditional reference formulae.
Cell culturing, materials preparations and all treatments were performed under sterile conditions. The L6 Cells culture medium comprised A-MEM supplemented with 100 U/ml penicillin and 100 μg/ml streptomycin and 10% FBS, sterilely filtered. The L6 cells differentiation medium comprised α-MEM supplemented with 100 U/ml penicillin and 100 μg/ml streptomycin and 2% FBS, sterilely filtered. […]
Glucose uptake assay was performed using Glucose Uptake Colorimetric Assay Kit in the non-radioactive 2-deoxy glucose derivative, according to the manufacturers' instructions in KRBH buffer, on differentiated cells. Colorimetric data was quantified by the use of a standard curve. Glucose uptake in the control (naïve cells), vehicle (DDW), and insulin-treated cells was measured.
Glucose uptake assay was then performed for the two concentrations of tested items: at 50 μg/mL and at 5 μg/mL. […] It can be readily appreciated from the FIG. 3 that the composition of eight ingredients composition was equipotent to QWS and BHT (denoted as “c1” and c2”) at the concentration of 50 μg/mL. […]

[1] = human, in vivo
Protocol: Patient 1: a person, suffering from diabetic leg complications and a non-healing wound on the minimus, indicated for amputation. The patient was treated with the composition as in the example 5, TI.1-8HC, 3 grams per day, for 20 days. The treatment was supported with suitable acupuncture protocol, and topical antibiotic preparations.
Patient 2: a person, suffering from diabetes, a completer of the clinical trial similar to the described in the Example 3, proceeded with the open-label extension for further 3 months and achieved a 24% reduction in the fasting glucose levels. Thereafter the dose was increased to 1500 mg twice daily, and after one month a complete control over fasting glucose level has been achieved (below 140 mg/dL). Low-carbohydrate diets was prescribed to maintain the achievement. The patient presented a year after with fasting blood glucose of over 160; requested and was prescribed raw fan shi liu ye 10000 mg per day (as decoction—10 minutes boiling, chilling, and consumption). After 10 days the fasting blood glucose declined to between 120 and 130 mg/dL, but the patient suffered from fatigue and reverted to the experimental chocolate.
Patient 3: a person, presented during COVID-19 pandemics with fasting blood glucose of 150 mg/dL, HA1C of 7.4, with anxiety and uncontrolled eating. […]

Question: With insulin as the substance, how does the “glucose uptake by muscle cells” value (L6 myotubes) read?
Answer: The value was “significantly increased”.

Question: With Psidium guajava L. [fan shi liu ye] as the substance, how does the “tolerability of treatment over extended time” value [1] read?
Answer: The value was “could not be well tolerated”.
